A short description of one data set: Solubilities in water. The data set is classed as physicochemical. Particulars: for solubility: water, read-out: Solubilities in water.
For the next data set, the target named is T1, Aldose Reductase (Bos taurus, UniProt P16116).
T1 construct: The enzyme is extracted from beef eye lenses; from tissue; host or cells: beef eye lenses
As to the kind of experiment: Inhibition of aldose reductase in vitro (enzyme from beef eye lenses, glyceraldehyde substrate). Particulars: in DMF solution, read-out: percentages of inhibition (aldose reductase); for inhibition at 100 µM: 10^-4 mole/l; for inhibition at 10 µM: 10^-5 mole/l. The data set is classed as biochemical. The text has this: Inhibition of Aldose Reductase In Vitro
The reoxidation of NADPH coupled to the enzymatic reaction was followed spectrophotometrically at 340 nm.

Another data set has as its system galactosemic cataract. The data set is described as follows: Galactosemic cataract in rats. It is filed as in vivo, weaning male EOPS Wistar rats. Particulars: 100 mg/kg/d i.p. The procedure:
GALACTOSEMIC CATARACT IN RATS
The study was conducted using weaning male EOPS Wistar rats having an initial weight of between 45 and 50 g. The animals were fed a high vitamin and high protein regimen containing 20% by weight of galactose. The first signs of cataracts, detected by the ophthalmoscope, appeared beginning with the third day. The animals received daily i.p. doses of the test compound, the treatment being started four days after the commencement of the galactosemic regimen. The evolution of the cataract was followed by the detection of maroon rings visible in the ophthalmoscope. These rings appeared on the external edge of the lens and progressed little by little to its center. Anatomopathological studies of the lenses confirmed that these brown rings correspond well to the characteristic histological lesions of galactosemic cataracts. Photographs taken with the aid of a retinograph facilitated the comparison of the evolution of the lesions.
Statistical calculations according to the .chi.^2 method permit an evaluation of the significance of the results obtained for each of the treatments compared to those for non-treated animals.

In the next data set the test system is capillary resistance. As to the kind of experiment: Capillaroprotecting effects: capillary resistance. The data set is classed as in vivo, male OFA EOPS rats. The protocol:
(§1) Capillaroprotecting effects
The capillary resistance was determined by a variant of the method of Charlier et al, Arch. Inter. Physiol.

In a further data set the test system is capillary permeability. As to the kind of experiment: Capillaroprotecting effects: capillary permeability. It is filed as in vivo, conventional male Wistar rats. The procedure:
as §1
The capillary permeability was determined by the method of Charlier et al, Arch. Inter. Physiol.

A further data set concerns carragenin edema. As to the kind of experiment: Anti-inflammatory activity: carragenin edema test. The data set is classed as in vivo. Particulars: Rattus norvegicus, ip, saturated bicarbonate solution, read-out: % inhibition of carragenin edema; for inhibition in vivo at 75 mg/kg: 75 mg/kg i.p.; for inhibition in vivo at 150 mg/kg: 150 mg/kg i.p. The protocol: Anti-inflammatory activity
This was determined by the carragenin edema test using male Wistar EOPS rats. Inflammation was induced by the injection of 0.1 ml of a suspension of 5% carragenin in physiological serum into the muscular bundle of the metatarsal region of the posterior paw of the animal. The test substance was administered i.p. in neutralized solution at the same time as the carragenin.
Edema was measured by plethysmometry at different times after the administration of the carragenin.
Tables IV and V show the percentages of inhibition as a function of time and of dosage for certain compounds of the present invention.
The above results were obtained for solutions of substantially alkaline
The reference experiments were performed using physiological serum brough
to a pH approximately the same as the pH of the solutions to be tested.

The structures appear in SMILES notation. Values after ≈ are worked out from the molar mass of the structure shown. Like-named read-outs stand apart in the source and are kept apart here.

As to `CC1(C)O[C@@H]2[C@@H](O)[C@H](OC[C@H]3O[C@@H](Oc4c(-c5ccc(O)c(O)c5)oc5cc(O)cc(O)c5c4=O)[C@H](O)[C@@H](O)[C@@H]3O)OC[C@@H]2O1` [No. 4, 3-O-(3,4-O,O-isopropylidene-6-α-L-arabinosyl-β-D-glucosyl)-quercetin], in the data set “Solubilities in water”, the solubility worked out at 600 µg/mL (≈ 943 µM). Further, at Aldose Reductase, the inhibition at 100 µM was 42% and the inhibition at 10 µM was determined as 0%.
Take `O=c1c(O[C@@H]2O[C@H](CO[C@@H]3OC[C@H](O)[C@H](O)[C@H]3O)[C@@H](O)[C@H](O)[C@H]2O)c(-c2ccc(O)c(O)c2)oc2cc(O)cc(O)c12` [3-Vicianosyl quercetin, reference compound]: the solubility in the data set “Solubilities in water” was 330 µg/mL (≈ 553 µM). Moreover, the “percentage of animals which have not yet shown the appearance of cataracts” value in the data set with galactosemic cataract (day 0) came to 100%; in the data set on galactosemic cataract (day 1) it was 100%; in the data set on galactosemic cataract (day 2), 97%; with galactosemic cataract (day 3), 59%; with galactosemic cataract (day 4) it was 40%; with galactosemic cataract (day 5) it was 31%. Further, the “percentage of animals which have not yet shown the appearance of cataracts” value came to 12% in the data set on galactosemic cataract (day 6); 9% in the data set with galactosemic cataract (day 10); 19% with galactosemic cataract (day 12); 22% in the data set with galactosemic cataract (day 16); 100% in the data set on galactosemic cataract (day -4). The “significance compared to non-treated animals (chi^2)” value in the data set with galactosemic cataract (day 4), in the data set on galactosemic cataract (day 5), in the data set with galactosemic cataract (day 6), in the data set on galactosemic cataract (day 12) and with galactosemic cataract (day 16) was “S” in each case.
Consider `CC1(C)OC[C@H]2O[C@@H](Oc3c(-c4ccc(O)c(O)c4)oc4cc(O)cc(O)c4c3=O)[C@H](O)[C@@H](O)[C@@H]2O1` [No. 5, 3-O-(4,6-O,O-isopropylidene-β-D-glucosyl)-quercetin], for which the “% of animals for which the effect is ≥ 25 u cm Hg/h” value with capillary resistance (50 mg/kg i.p.) is given as 60%; in the data set with capillary resistance (100 mg/kg i.p.) it was 80%; in the data set on capillary resistance (200 mg/kg i.p.) it was 80%. Also, the “capillary resistance, effect observed” value was determined as 28 ± 9.8 u cm Hg/h with capillary resistance (50 mg/kg i.p.), 32.25 ± 11.4 u cm Hg/h in the data set on capillary resistance (100 mg/kg i.p.) and 37 ± 16.1 u cm Hg/h with capillary resistance (200 mg/kg i.p.). Besides, the solubility in “Solubilities in water” is less than 100 µg/mL. Also, the inhibition at 100 µM on Aldose Reductase came to 83%. The inhibition at 10 µM on Aldose Reductase turned out to be 56%. Further, the inhibition at 1 µM at Aldose Reductase (10^-6 mole/l) turned out to be 0%. The figures for the “percentage reduction of capillary permeability” value in the data set with capillary permeability (50 mg/kg i.p.), in the data set with capillary permeability (100 mg/kg i.p.) and in the data set on capillary permeability (200 mg/kg i.p.) were 11%, 34% and 28%, respectively.
On to `O=c1c(O[C@@H]2O[C@H](CO)[C@@H](O)[C@H](O)[C@H]2O)c(-c2ccc(O)c(O)c2)oc2cc(O)cc(O)c12` [Isoquercitrin, reference compound], for which, in “Solubilities in water”, the Solubilities in water result is on record as “insoluble”. The inhibition in vivo at 75 mg/kg came out at 28% with carragenin edema (1/2 h); 32% in the data set on carragenin edema (1 h, 1 h); 18% in the data set on carragenin edema (2 h, 2 h); 28% with carragenin edema (3 h, 3 h); 22% in the data set with carragenin edema (4 h, 4 h); 23% in the data set on carragenin edema (5 h, 5 h). Moreover, the inhibition in vivo at 75 mg/kg in the data set on carragenin edema (6 h, 6 h) was determined as 25%. Also, the inhibition in vivo at 150 mg/kg in the data set on carragenin edema (1/2 h) was 30%; in the data set with carragenin edema (1 h, 1 h), 40%; with carragenin edema (2 h, 2 h), 37%; with carragenin edema (3 h, 3 h), 18%; in the data set with carragenin edema (4 h, 4 h), 9%; with carragenin edema (5 h, 5 h) it was 9%. Moreover, the inhibition in vivo at 150 mg/kg in the data set on carragenin edema (6 h, 6 h) is 6%.
Consider `O=c1ccc2cc(O[C@@H]3O[C@H](CO)[C@@H](O)[C@H](O)[C@H]3O)c(O)cc2o1` [Esculin, reference compound], for which, in “Solubilities in water”, the solubility came to 1700 µg/mL (≈ 5000 µM). For the same compound, the inhibition at 100 µM on Aldose Reductase is 16%.

Source of the values: patent US4211772A, “Benzopyran glycoside acetals and ketals” (Laboratoires Sarget, priority 1977, dated 1980).
